Measured values reported in publication PMC11053944, “FRET Assays for the Identification of C. albicans HSP90-Sba1 and Human HSP90α-p23 Binding Inhibitors” (Pharmaceuticals, 2024).
Entries after “also recorded” stand apart in the source; their conditions may differ.

Experiments:
HSP90 = conditions: cited from earlier work
[1] = molecular target: T1, C. albicans HSP90–Sba1 binding (Candida albicans, UniProt P46598); assay: FRET inhibitor screening assay, C. albicans HSP90-Sba1 binding; conditions: 10 or 100 µM (Sba1 20 µM), triplicates, 3 mM ATP, 1% DMSO, 15 min 30 °C
T1 construct: made in house; host or cells: E. coli BL21(DE3)
Excerpt: We used the Z′ factor (Z′) to optimize the FRET assays for screening purposes. Z′ represents a simple statistical parameter for the quality assessment and optimization of HTS assays and screening assays in general. It is a measure that determines the degree of signal separation between binding and non-binding data sets. Calculation of the Z′ factor is based on the standard deviation of the individual data sets as well as their general signal separation. Values ≥ 0.5 can be classified as excellent for screening purposes. […] When the fluorescent fusion proteins of HSP90 and co-chaperones bind to each other, FRET occurs between donor and acceptor fluorophores, and the sensitized emission (EmFRET) signal increases. Consequently, the fluorescence intensity of the donor decreases (FLDD). […] To obtain an informative Z′ value, we calculated it based on at least three independent experiments amounting to 144 samples for both binding and non-binding control data sets (Figure 4B,E). […] We defined the ‘hit threshold’ as a decrease in readout signal of more than 3 standard deviations (SDs) from the mean signal of the binding control. This constitutes a common threshold for hit identification in HTS campaigns.
(§1) FRET experiments were carried out in 384-well microtiter plates (Art. No. 3766 Corning, NY, USA, or Art. No. 781906, Greiner Bio-One GmbH, Frickenhausen, Germany) containing a final volume of 20 µL and measured with a microplate reader Infinite M200Pro (Tecan, Männedorf, Switzerland). The fluorescence was measured in three channels: excitation (ex.): 488 nm/emission (em.): 525 nm (mNeonGreen fluorescence), ex.: 561 nm/em.: 610 nm (mScarlet-I fluorescence) and the FRET channel ex.: 488 nm/em.: 610 nm. The excitation and emission bandwidths were set to 9 and 20 nm, respectively. Experiments for the determination of the equilibrium dissociation constants were performed with a filter-based microplate reader Infinite F200Pro (Tecan, Männedorf, Switzerland). The fluorescence was measured in three channels using the following filters: ex.: 485 ± 20 nm/em.: 535 ± 20 nm (mNeonGreen channel), ex.: 535 ± 20 nm/em.: 612 ± 10 nm (mScarlet-I channel) and the FRET channel ex.: 485 ± 20 nm/em.: 612 ± 10 nm. FRET emission (EmFRET) was calculated according to Song et al. 2011 [81]:(1) EmFRET=FLDA−x×FLDD−(y×FLAA) where FLDA is the fluorescence signal of the FRET channel and FLDD and FLAA are fluorescence signals from the mNeonGreen and mScarlet-I channels, respectively. The correction factors x and y were calculated as follows:(2) x=FLDA/FLDD for samples containing only the donor fluorophore or fluorescent fusion proteins with mNeonGreen and (3) y=FLDA/FLAA for samples containing only the acceptor fluorophore or fluorescent fusion proteins with mScarlet-I in the same concentration as samples containing both the donor and acceptor.
For screening for the identification of ATP-competitive C. albicans HSP90 and HSP90-Sba1 binding inhibitors, 10 µL of HSP90-mNeonGreen ([…]) in HEPES buffer (40 mM HEPES/KOH pH 7.5, 20 mM KCl) was mixed with 10 µL of 200 µM compound solution in 2x reaction buffer (40 mM HEPES/KOH pH 7.5, 20 mM KCl, 10 mM MgCl2, 40 mM Na2MoO4, Triton-X 100 0.2%), 6 mM ATP, 2% DMSO, resulting […] Samples for binding control (3 mM ATP, final concentration) and non-binding control (no ATP) were prepared in the same manner without compounds. The samples were incubated for 15 min at 30 °C prior to measurement.

HSP90 - Sba1/p23 binding = conditions: according to literature; cited from earlier work
[2] = molecular target: T2, C. albicans HSP90-mNeonGreen–Sba1-mScarlet-I binding (Candida albicans, UniProt P46598, E36A)
T2 construct: made in house; host or cells: E. coli BL21(DE3)
Method: (§2) In this investigation, 1 µM HSP90-mNeonGreen was incubated with 2 µM Sba1-mScarlet-I in reaction buffer containing 5 mM ATP either alone (UC) or with the addition of 20 µM Sba1. As a negative control, samples containing 20 µM bovine serum albumin (BSA) were used.
as §1
All experiments were carried out in reaction buffer (40 mM HEPES/KOH pH 7.5, 20 mM KCl, 5 mM MgCl2, 20 mM Na2MoO4, Triton-X 100 0.1%). HEPES and KCl were purchased from AppliChem, Darmstadt, Germany. […]

[3] = molecular target: T3, human HSP90α-mNeonGreen–p23-mScarlet-I binding (Homo sapiens, UniProt P07900, E47A); assay: FRET characterization of model inhibitors and ATP on human HSP90α-p23 binding
T3 construct: made in house; host or cells: E. coli Rosetta2(DE3) pLysS
Method: as §2, §1
All experiments were carried out in reaction buffer (40 mM HEPES/KOH pH 7.5, 20 mM KCl, 5 mM MgCl2, 20 mM Na2MoO4, Triton-X 100 0.1%). HEPES and KCl were purchased from AppliChem, Darmstadt, Germany. KOH and MgCl2 were obtained from VWR Chemicals, Darmstadt, Germany. Na2MoO4 was from Merck, Darmstadt, Germany. Triton-X 100 was purchased from Serva, Heidelberg, Germany.
For C. albicans Sba1 competition experiments for HSP90-mNeonGreen–Sba1-mScarlet-I binding, 1 µM HSP90-mNeonGreen and 1 µM Sba1-mScarlet-I were incubated with varying concentrations of Sba1 in a range of 0–25,000 nM (lowest non-zero concentration 12 nM) in reaction buffer containing 5 mM ATP. The experiment was performed twice in nonaplicates. For human p23 competition experiments for HSP90α-mNeonGreen–p23-mScarlet-I binding, 1 µM HSP90α-mNeonGreen and 1 µM p23-mScarlet-I were incubated with varying concentrations of p23 in a range of 0–50 000 nM (lowest non-zero concentration 23 nM) in reaction buffer containing 5 mM ATP. The experiment was performed twice in hexaplicates. […] The experiment was performed thrice in triplicates. […] The IC50,rel values were calculated using the equation log (inhibitor) vs. response-variable slope (four parameters) in GraphPad Prism 5. Ki values for inhibition of HSP90-mNeonGreen–Sba1-mScarlet-I/p23-mScarlet-I binding by non-labeled Sba1/p23 were calculated with One Site—Fit Ki in GraphPad Prism 5. […] The EC50,rel values were calculated using the log (agonist) vs. response-variable slope (four parameters) equation in GraphPad Prism 5.

human HSP90α–p23 binding = molecular target: T4, human HSP90α–p23 binding (Homo sapiens, UniProt P07900); assay: FRET inhibitor screening assay, human HSP90α-p23 binding; conditions: 10 or 100 µM, triplicates, 3 mM ATP, 1% DMSO, 15 min 37 °C
T4 construct: made in house; host or cells: E. coli Rosetta2(DE3) pLysS
Excerpt: We used the Z′ factor (Z′) to optimize the FRET assays for screening purposes. Z′ represents a simple statistical parameter for the quality assessment and optimization of HTS assays and screening assays in general. It is a measure that determines the degree of signal separation between binding and non-binding data sets. Calculation of the Z′ factor is based on the standard deviation of the individual data sets as well as their general signal separation. Values ≥ 0.5 can be classified as excellent for screening purposes. […] When the fluorescent fusion proteins of HSP90 and co-chaperones bind to each other, FRET occurs between donor and acceptor fluorophores, and the sensitized emission (EmFRET) signal increases. Consequently, the fluorescence intensity of the donor decreases (FLDD). […] We defined the ‘hit threshold’ as a decrease in readout signal of more than 3 standard deviations (SDs) from the mean signal of the binding control. This constitutes a common threshold for hit identification in HTS campaigns.
The excitation and emission bandwidths were set to 9 and 20 nm, respectively. Experiments for the determination of the equilibrium dissociation constants were performed with a filter-based microplate reader Infinite F200Pro (Tecan, Männedorf, Switzerland). […] The correction factors x and y were calculated as follows:(2) x=FLDA/FLDD for samples containing only the donor fluorophore or fluorescent fusion proteins with mNeonGreen and (3) y=FLDA/FLAA for samples containing only the acceptor fluorophore or fluorescent fusion proteins with mScarlet-I in the same concentration as samples containing both the donor and acceptor.
For screening for the identification of ATP-competitive C. albicans HSP90 and HSP90-Sba1 binding inhibitors, 10 µL of HSP90-mNeonGreen (2 µM) and Sba1-mScarlet-I (4 µM) in HEPES buffer (40 mM HEPES/KOH pH 7.5, 20 mM KCl) was mixed with 10 µL of 200 µM compound solution in 2x reaction buffer (40 mM HEPES/KOH pH 7.5, 20 mM KCl, 10 mM MgCl2, 40 mM Na2MoO4, Triton-X 100 0.2%), 6 mM ATP, 2% DMSO, resulting ultimately in constant HSP90-mNeonGreen concentrations of 1 µM and Sba1-mScarlet-I 2 µM in reaction buffer. Samples for binding control (3 mM ATP, final concentration) and non-binding control (no ATP) were prepared in the same manner without compounds. The samples were incubated for 15 min at 30 °C prior to measurement. The assay for the human HSP90α–p23 binding inhibitor identification was performed analogously, with the exception that samples were incubated for 15 min at 37 °C prior to measurement. Since binding samples show both a high EmFRET as well as a reduction in donor emission (FLDD), we calculated the quotient (EmFRET/FLDD) to derive an improved signal separation and robustness. The nucleoside-mimetics library was obtained from Enamine (catalog No. NML-320-X-20, Enamine Ltd., Kyiv, Ukraine). Z′ and Z factors were calculated based on Zhang et al..

[4] = molecular target: T5, C. albicans HSP90-mNeonGreen (Candida albicans, UniProt P46598); assay: Microscale thermophoresis, AMP-PNP binding; conditions: 50 nM HSP90-mNeonGreen, 25 °C, error of the fit; read-out: Kd, binding to C. albicans HSP90-mNeonGreen (MST)
T5 construct: made in house; host or cells: E. coli BL21(DE3)
Method: HSP90-mNeonGreen (C. albicans) or mNeonGreen serving as the negative control was adjusted to 100 nM with Sba1 buffer (40 mM HEPES/KOH pH 7.5, 20 mM KCl). The ligand AMP-PNP was dissolved in 2x reaction buffer (40 mM HEPES/KOH pH 7.5, 20 mM KCl, 10 mM MgCl2, 40 mM Na2MoO4, 0.2% Triton-X 100), and a series of 16 1:1 dilutions was prepared using the same buffer, producing ligand concentrations ranging from […] to […]. For the measurement, each ligand dilution was mixed with one volume of HSP90-mNeonGreen or mNeonGreen, which led to a final concentration of 50 nM and final ligand concentrations ranging from 153 nM to […]. After 5 min incubation at room temperature, the samples were loaded into Monolith NT.115 Capillaries (NanoTemper Technologies, Munich, Germany). MST was measured using a Monolith NT.115 at an ambient temperature of 25 °C. Instrument parameters were adjusted to 35% LED power and a high MST power of 80%. Data of three independently pipetted measurements were analyzed (MO.Affinity Analysis software version 2.1.3, NanoTemper Technologies, Munich, Germany) using the signal from an MST-on time of 30 s.

human HSP90β–p23 complex = molecular target: human HSP90β–p23 complex; design: method as in PMID 16403413; conditions: read-out: Kd, binding to human HSP90β–p23 complex; cited from earlier work
human HSP90β = molecular target: human HSP90β; design: method as in earlier work; conditions: 25 °C; ref 37 (McLaughlin et al.); read-out: Kd, binding to human HSP90β; cited from earlier work

T1 sequence (P46598 whole entry): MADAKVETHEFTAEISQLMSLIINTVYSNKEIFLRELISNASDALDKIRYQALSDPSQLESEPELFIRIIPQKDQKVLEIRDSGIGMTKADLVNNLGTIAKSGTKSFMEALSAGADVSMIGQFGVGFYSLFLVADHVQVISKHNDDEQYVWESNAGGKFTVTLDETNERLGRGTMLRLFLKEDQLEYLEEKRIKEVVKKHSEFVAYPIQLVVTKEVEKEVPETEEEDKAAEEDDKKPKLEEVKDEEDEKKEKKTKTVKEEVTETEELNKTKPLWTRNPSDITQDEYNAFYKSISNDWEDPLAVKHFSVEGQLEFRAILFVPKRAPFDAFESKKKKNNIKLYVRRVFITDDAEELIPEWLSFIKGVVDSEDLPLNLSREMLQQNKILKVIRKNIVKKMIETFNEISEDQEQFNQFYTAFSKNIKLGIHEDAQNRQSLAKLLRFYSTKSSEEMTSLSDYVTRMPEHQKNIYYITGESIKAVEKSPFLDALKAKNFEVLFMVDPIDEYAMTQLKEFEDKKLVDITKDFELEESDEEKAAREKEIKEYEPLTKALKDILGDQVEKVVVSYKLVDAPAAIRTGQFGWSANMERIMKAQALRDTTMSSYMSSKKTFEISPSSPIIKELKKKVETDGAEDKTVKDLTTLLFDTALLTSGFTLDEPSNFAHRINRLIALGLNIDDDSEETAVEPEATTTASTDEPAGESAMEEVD
T2 sequence (P46598 whole entry, stated change not applied): as the sequence (P46598 whole entry) above
T5 sequence (P46598 whole entry): as the sequence (P46598 whole entry) above

COc1c(C)cnc(Cn2cnc3c(Cl)nc(N)nc32)c1C [BIIB021]
Ki (HSP90; Table S1, read-out: Ki (printed in the Kd value column)): […] | hit identification (EmFRET/FLDD decrease of more than 3 SDs from binding control mean) [1]: reliably identified as disrupting HSP90-Sba1 binding; also recorded: reliably identified as hits | Influence on p23/Sba1 binding (HSP90 - Sba1/p23 binding): Yes

Nc1ncnc2c1ncn2[C@@H]1O[C@H](COP(=O)(O)OP(=O)(O)OP(=O)(O)O)[C@@H](O)[C@H]1O [ATP]
concentration at which maximum binding was reached ([2]; 1 µM HSP90E36A-mNeonGreen, 2 µM Sba1-mScarlet-I): ~ 3 mM | EC50 ([2]; 1 µM donor, 2 µM acceptor, ATP 0–12,500 µM, read-out: EC50,rel, influence on HSP90E36A-mNeonGreen–Sba1-mScarlet-I binding): 220 ± 40 µM | concentration at which maximum binding was reached ([3]; 1 µM HSP90αE47A-mNeonGreen, 2 µM p23-mScarlet-I): ~ 3 mM | EC50 ([3]; 1 µM donor, 2 µM acceptor, read-out: EC50,rel, influence on HSP90αE47A-mNeonGreen–p23-mScarlet-I binding): 210 ± 30 µM

CC1(C)CC(=O)c2c(C(F)(F)F)nn(-c3ccc(C(N)=O)c(N[C@H]4CC[C@H](OC(=O)CN)CC4)c3)c2C1 [SNX-5422]
Kd (HSP90; Table S1, according to literature): 0.016 µM | hit identification (EmFRET/FLDD decrease of more than 3 SDs from binding control mean) [1]: reliably identified as disrupting HSP90-Sba1 binding; also recorded: reliably identified as hits | hit identification (EmFRET/FLDD decrease of more than 3 SDs from binding control mean) (human HSP90α–p23 binding): reliably identified as hits | Influence on p23/Sba1 binding (HSP90 - Sba1/p23 binding): Yes

Nc1ncnc2c1ncn2[C@@H]1O[C@H](COP(=O)(O)OP(=O)(O)NP(=O)(O)O)[C@@H](O)[C@H]1O [AMP-PNP]
Kd [4]: 200 ± 70 µM | Kd (human HSP90β–p23 complex): 39 ± 12 µM | Kd (human HSP90β): 148 ± 12 µM
